Measured values taken from patent US6914064B2, “1,4-Disubstituted piperazine derivatives useful as uro-selective α1-adrenoceptor blockers” (Ranbaxy Laboratories Limited, priority 2000, dated 2005).
Structures can show the parent of a compound that is named as a salt. Where two headings read alike, the source gives them in different places.

Experiments:
α1B adrenoceptor = biological target: T1, α1B adrenoceptor (Rattus norvegicus, UniProt P15823); assay: Receptor binding assay, displacement of [3H]prazosin, rat liver membranes
T1 construct: from tissue; host or cells: rat liver membranes
T1 sequence (P15823 1-515): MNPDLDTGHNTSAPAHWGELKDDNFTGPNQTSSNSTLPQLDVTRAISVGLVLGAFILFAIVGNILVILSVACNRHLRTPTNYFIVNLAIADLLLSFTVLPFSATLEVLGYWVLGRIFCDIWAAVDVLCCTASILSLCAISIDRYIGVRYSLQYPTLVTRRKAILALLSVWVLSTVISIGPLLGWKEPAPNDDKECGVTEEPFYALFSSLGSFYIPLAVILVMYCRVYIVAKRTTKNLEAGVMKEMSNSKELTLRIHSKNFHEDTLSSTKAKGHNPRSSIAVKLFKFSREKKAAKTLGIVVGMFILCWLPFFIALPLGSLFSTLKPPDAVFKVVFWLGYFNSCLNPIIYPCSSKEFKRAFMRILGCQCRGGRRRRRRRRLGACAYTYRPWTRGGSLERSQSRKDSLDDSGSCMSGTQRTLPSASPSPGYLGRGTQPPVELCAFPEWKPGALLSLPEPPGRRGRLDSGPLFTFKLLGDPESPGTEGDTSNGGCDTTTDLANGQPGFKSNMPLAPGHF
Procedure: Receptor binding assays were performed using native α-adrenoceptors. The affinity of different compounds for α1A and α1B adrenoceptor subtypes was evaluated by studying their ability to displace specific [^3H]prazosin binding from the membranes of rat submaxillary and liver respectively (Michel et al, Br J Pharmacol, 98, 883-889 (1989)). The binding assays were performed according to U'Prichard et al. (Eur J Pharmacol, 50:87-89 (1978)) with minor modifications.
(§1) Submaxillary glands were isolated immediately after sacrifice. The liver was perfused with buffer (Tris HCl 50 mM, NaCl 100 mM, 10 mM EDTA pH 7.4). The tissues were homogenised in 10 volumes of buffer (Tris HCl 50 mM, NaCl 100 mM, EDTA 10 mM, pH 7.4). The homogenate was filtered through two layers of wet gauze and filtrate was centrifuged at 500 g for 10 min. The supernatant was subsequently centrifuged at 40,000 g for 45 min. The pellet thus obtained was resuspended in the same volume of assay buffer (Tris HCl 50 mM, EDTA 5 mM, pH 7.4) and were stored at −70° C. until the time of assay.
(§2) The membrane homogenates (150-250 μg protein) were incubated in 250 μl of assay buffer (Tris HCl 50 mM, EDTA 5 mM, pH 7.4) at 24-25° C. for 1 h. Non-specific binding was determined in the presence of 300 nM prazosin. The incubation was terminated by vacuum filtration over GF/B fibre filters. The filters were then washed with ice cold 50 mM Tris HCl buffer (pH 7.4). The filtermats were dried and bound radioactivity retained on filters was counted.The IC50 & Kd were estimated by using the non-linear curve fitting program using G Pad Prism software. The value of inhibition constant Ki was calculated from competitive binding studies by using Cheng & Prusoff equation (Cheng & Prusoff, Biochem Pharmacol, 1973,22: 3099-3108), Ki=IC50/(1+L/Kd) where L is the concentration of [^3H]prazosin used in the particular experiment (Table I).

α1A adrenoceptor = biological target: T2, α1A adrenoceptor (Rattus norvegicus, UniProt P43140); assay: Receptor binding assay, displacement of [3H]prazosin, rat submaxillary membranes; conditions: for Selectivity α1B/α1A: ratio of Ki α1B (rat liver) / α1A (rat submaxillary)
T2 construct: from tissue; host or cells: rat submaxillary gland membranes
T2 sequence (P43140 1-466): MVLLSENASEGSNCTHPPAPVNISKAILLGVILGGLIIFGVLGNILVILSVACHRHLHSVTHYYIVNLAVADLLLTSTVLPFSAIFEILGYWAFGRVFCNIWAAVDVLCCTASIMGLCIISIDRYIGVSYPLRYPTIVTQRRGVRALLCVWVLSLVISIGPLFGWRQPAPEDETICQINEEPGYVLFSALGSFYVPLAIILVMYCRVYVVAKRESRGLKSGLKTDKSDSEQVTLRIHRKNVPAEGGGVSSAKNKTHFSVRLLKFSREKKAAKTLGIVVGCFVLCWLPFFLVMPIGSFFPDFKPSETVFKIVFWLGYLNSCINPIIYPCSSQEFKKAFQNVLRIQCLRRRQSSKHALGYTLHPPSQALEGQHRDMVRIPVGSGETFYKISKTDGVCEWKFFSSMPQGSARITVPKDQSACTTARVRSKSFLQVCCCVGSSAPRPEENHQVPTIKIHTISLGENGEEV
Procedure: Receptor binding assays were performed using native α-adrenoceptors.
as §1
as §2, with “software.” for “software. The value of inhibition constant Ki was calculated from competitive binding studies by using Cheng & Prusoff equation (Cheng & Prusoff, Biochem Pharmacol, 1973,22: 3099-3108), Ki=IC50/(1+L/Kd) where L is the concentration of [^3H]prazosin used in the particular experiment (Table I).”

[1] = [3H]prazosin displacement, rat liver membranes, read-out: α1B (Rat liver) Ki
[2] = [3H]prazosin displacement, rat submaxillary membranes, read-out: α1A (Rat submaxillary) Ki

Compound	Ki (α1B adrenoceptor; [1])	melting point	Ki (α1A adrenoceptor; [2])	Selectivity α1B/α1A (α1A adrenoceptor)	Ki (α1B adrenoceptor)	Ki (α1A adrenoceptor)
Cl.O=C1C2CC=CCC2C(=O)N1CCCN1CCN(c2cccc(Cl)c2)CC1 (centres unmarked) [Compound 02, 2-[3-{4-(3-Chlorophenyl)piperazin-1-yl}propyl]-3a,4,7,7a-tetrahydro-1H-isoindole-1,3(2H)-dione hydrochloride]	398 nM	221 to 223 °C	83 nM	4.8	–	–
Cc1ccccc1N1CCN(CCCN2C(=O)[C@H]3CC=CC[C@H]3C2=O)CC1 [Compound 03, 2-[3-{4-(2-Methylphenyl)piperazin-1-yl}propyl]-3a,4,7,7a-tetrahydro-1H-isoindole-1,3(2H)-dione hydrochlolide]	168 nM	–	32.5 nM	5	–	–
Cl.O=C1C2CC=CCC2C(=O)N1CCCN1CCN(c2ccc(F)cc2)CC1 (centres unmarked) [Compound 04, 2-[3-{4-(4-Fluorophenyl)piperazin-1-yl}propyl]-3a,4,7,7a-tetrahydro-1H-isoindole-1,3(2H)-dione hydrochloride]	363 nM	228 to 230 °C	80 nM	4.5	–	–
Cl.O=C1C2CC=CCC2C(=O)N1CCCN1CCN(c2cccc(C(F)(F)F)c2)CC1 (centres unmarked) [Compound 05, 2-[3-{4-(3-Trifluoromethylphenyl)piperazin-1-yl}propyl]-3a,4,7,7a-tetrahydro-1H-isoindole-1,3(2H)-dione hydrochloride]	–	215 to 217 °C	–	2	> 500 nM	259 nM
Cl.O=C1C2CC=CCC2C(=O)N1CCCN1CCN(c2ccccc2F)CC1 (centres unmarked) [Compound 06, 2-[3-{4-(2-Fluorophenyl)piperazin-1-yl}propyl]-3a,4,7,7a-tetrahydro-1H-isoindole-1,3(2H)-dione hydrochloride]	469 nM	203 to 204 °C	36 nM	13	–	–
Cc1ccc(N2CCN(CCCN3C(=O)C4CC=CCC4C3=O)CC2)cc1C.Cl (centres unmarked) [Compound 07, 2-[3-{4-(3,4-Dimethylphenyl)piperazin-1-yl}propyl]-3a,4,7,7a-tetrahydro-1H-isoindole-1,3(2H)-dione hydrochloride]	> 500 nM	194 to 196 °C	183 nM	2.7	–	–
Cl.O=C1C2CC=CCC2C(=O)N1CCCN1CCN(c2ccc(F)cc2F)CC1 (centres unmarked) [Compound 10, 2-[3-{4-(2,4-Difluorophenyl)piperazin-1-yl}propyl]-3a,4,7,7a-tetrahydro-1H-isoindole-1,3(2H)-dione hydrochloride]	165 nM	218.2 to 219 °C	62 nM	2.7	–	–
Cc1ccc(Cl)cc1N1CCN(CCCN2C(=O)C3CC=CCC3C2=O)CC1.Cl (centres unmarked) [Compound 12, 2-[3-{4-(2-Methyl-5-chlorophenyl)piperazin-1-yl}propyl]-3a,4,7,7a-tetrahydro-1H-isoindole-1,3(2H)-dione hydrochloride]	51.3 nM	231 to 232 °C	8.66 nM	5.9	–	–
Cl.O=C1C2CC=CCC2C(=O)N1CCCN1CCN(Cc2ccccc2)CC1 (centres unmarked) [Compound 14, 2-[3-{4-(Benzyl)piperazin-1-yl}propyl]-3a,4,7,7a-tetrahydro-1H-isoindole-1,3(2H)-dione hydrochloride]	> 500 nM	275 to 278 °C	> 500 nM	1	–	–
O=C1[C@H]2CC=CC[C@H]2C(=O)N1CCCN1CCN(C(c2ccc(F)cc2)c2ccc(F)cc2)CC1 [Compound 19, 2-[3-{4-(Bis-4-fluorophenyl)methylpiperazin-1-yl}propyl]-3a,4,7,7a-tetrahydro-1H-isoindole-1,3(2H)-dione hydrochloride]	81 nM	–	5.26 nM	15	–	–
